According to paper PMC12649549, “Sequence Permutation Generated Lysine and Tryptophan-Rich Antimicrobial Peptides with Enhanced Therapeutic Index” (Antibiotics, 2025):
Like-named read-outs stand apart in the source and are kept apart here.

Experiments:
[1] = test system: A. baumannii 14B0097 (Acinetobacter sp., BCRC number 14B0097)
Procedure, shortened: (§1)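 Salt and pH tolerance was assessed by determining MICs in LYM medium containing 50–300 mM NaCl, 0.5–2.5 mM MgCl2, or at pH 4.5–6.5, alongside MH broth. The inoculum was 5 × 10^5 CFU/mL.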

S. aureus ATCC 6538 = test system: S. aureus ATCC 6538
Procedure, shortened: as §1

S. aureus ATCC 33591 = test system: S. aureus ATCC 33591
Procedure, shortened: as §1

[2] = test system: Pseudomonas aeruginosa Migula (ATCC 27853)
Procedure, shortened: as §1

[3] = test system: A. baumannii 14B0091 (Acinetobacter sp., BCRC number 14B0091)
Procedure, shortened: as §1

[4] = test system: Escherichia coli (ATCC 25922)
Procedure, shortened: as §1

S. aureus ATCC 25923 = test system: S. aureus ATCC 25923
Procedure, shortened: as §1

[5] = LYM broth, 0 mM NaCl, 16 h, 37 °C
[6] = LYM broth, 50 mM NaCl, 16 h, 37 °C
[7] = LYM broth, 100 mM NaCl, 16 h, 37 °C
[8] = LYM broth, 200 mM (NaCl), 16 h, 37 °C
[9] = LYM broth, 300 mM (NaCl), 16 h, 37 °C
[10] = MH broth, 5 × 10^5 CFU/mL, 16 h, 37 °C, repeated three times

## Ac-WRKWLKWLAKKKK-NH2 [Peptide W5K02]
[1]; [5]
  MIC: 1.56 µg/mL
[1]; LYM broth, 0.5 mM MgCl2
  MIC: 1.56 µg/mL
[1]; LYM broth, 1.5 mM MgCl2
  MIC: 3.13 µg/mL
[1]; LYM broth, 2.5 mM MgCl2
  MIC: 3.13 µg/mL
[1]; [6]
  MIC: 1.56 µg/mL
[1]; [7]
  MIC: 1.56 µg/mL
[1]; [8]
  MIC: 3.13 µg/mL
[1]; [9]
  MIC: 6.25 µg/mL
[1]; LYM broth, pH 4.5
  MIC: 3.13 µg/mL
[1]; LYM broth, pH 5.5
  MIC: 3.13 µg/mL
[1]; LYM broth, pH 6.5
  MIC: 3.13 µg/mL
[1]; [10]
  MIC: 3.13 µg/mL
S. aureus ATCC 6538; [5]
  MIC: 6.25 µg/mL
S. aureus ATCC 6538; LYM broth, 0.5 mM MgCl2
  MIC: 3.13 µg/mL
S. aureus ATCC 6538; LYM broth, 1.5 mM MgCl2
  MIC: 3.13 µg/mL
S. aureus ATCC 6538; LYM broth, 2.5 mM MgCl2
  MIC: 6.25 µg/mL
S. aureus ATCC 6538; [6]
  MIC: 6.25 µg/mL
S. aureus ATCC 6538; [7]
  MIC: 12.5 µg/mL
S. aureus ATCC 6538; [8]
  MIC: 25 µg/mL
S. aureus ATCC 6538; [9]
  MIC: 50 µg/mL
S. aureus ATCC 6538; LYM broth, pH 4.5
  MIC: 6.25 µg/mL
S. aureus ATCC 6538; LYM broth, pH 5.5
  MIC: 3.13 µg/mL
S. aureus ATCC 6538; LYM broth, pH 6.5
  MIC: 3.13 µg/mL
S. aureus ATCC 6538; [10]
  MIC: 12.5 µg/mL
S. aureus ATCC 33591; [5]
  MIC: 6.25 µg/mL
S. aureus ATCC 33591; LYM broth, 0.5 mM MgCl2
  MIC: 6.25 µg/mL
S. aureus ATCC 33591; LYM broth, 1.5 mM MgCl2
  MIC: 6.25 µg/mL
S. aureus ATCC 33591; LYM broth, 2.5 mM MgCl2
  MIC: 6.25 µg/mL
S. aureus ATCC 33591; [6]
  MIC: 6.25 µg/mL
S. aureus ATCC 33591; [7]
  MIC: 12.5 µg/mL
S. aureus ATCC 33591; [8]
  MIC: 50 µg/mL
S. aureus ATCC 33591; [9]
  MIC: 50 µg/mL
S. aureus ATCC 33591; LYM broth, pH 4.5
  MIC: 6.25 µg/mL
S. aureus ATCC 33591; LYM broth, pH 5.5
  MIC: 6.25 µg/mL
S. aureus ATCC 33591; LYM broth, pH 6.5
  MIC: 6.25 µg/mL
S. aureus ATCC 33591; [10]
  MIC: 25 µg/mL
[2]; [5]
  MIC: 6.25 µg/mL
[2]; LYM broth, 0.5 mM MgCl2
  MIC: 6.25 µg/mL
[2]; LYM broth, 1.5 mM MgCl2
  MIC: 6.25 µg/mL
[2]; LYM broth, 2.5 mM MgCl2
  MIC: 6.25 µg/mL
[2]; [6]
  MIC: 6.25 µg/mL
[2]; [7]
  MIC: 25 µg/mL
[2]; [8]
  MIC: >50 µg/mL
[2]; [9]
  MIC: >50 µg/mL
[2]; LYM broth, pH 4.5
  MIC: 3.13 µg/mL
[2]; LYM broth, pH 5.5
  MIC: 3.13 µg/mL
[2]; LYM broth, pH 6.5
  MIC: 3.13 µg/mL
[2]; [10]
  MIC: 25 µg/mL
[3]; [5]
  MIC: 1.56 µg/mL
[3]; LYM broth, 0.5 mM MgCl2
  MIC: 1.56 µg/mL
[3]; LYM broth, 1.5 mM MgCl2
  MIC: 1.56 µg/mL
[3]; LYM broth, 2.5 mM MgCl2
  MIC: 1.56 µg/mL
[3]; [6]
  MIC: 1.56 µg/mL
[3]; [7]
  MIC: 1.56 µg/mL
[3]; [8]
  MIC: 3.13 µg/mL
[3]; [9]
  MIC: 6.25 µg/mL
[3]; LYM broth, pH 4.5
  MIC: 1.56 µg/mL
[3]; LYM broth, pH 5.5
  MIC: 1.56 µg/mL
[3]; LYM broth, pH 6.5
  MIC: 1.56 µg/mL
[3]; [10]
  MIC: 3.13 µg/mL
[4]; [5]
  MIC: 6.25 µg/mL
[4]; LYM broth, 0.5 mM MgCl2
  MIC: 6.25 µg/mL
[4]; LYM broth, 1.5 mM MgCl2
  MIC: 12.5 µg/mL
[4]; LYM broth, 2.5 mM MgCl2
  MIC: 12.5 µg/mL
[4]; [6]
  MIC: 12.5 µg/mL
[4]; [7]
  MIC: 25 µg/mL
[4]; [8]
  MIC: >50 µg/mL
[4]; [9]
  MIC: >50 µg/mL
[4]; LYM broth, pH 4.5
  MIC: 3.13 µg/mL
[4]; LYM broth, pH 5.5
  MIC: 3.13 µg/mL
[4]; LYM broth, pH 6.5
  MIC: 3.13 µg/mL
[4]; [10]
  MIC: 12.5 µg/mL
S. aureus ATCC 25923; [5]
  MIC: 6.25 µg/mL
S. aureus ATCC 25923; LYM broth, 0.5 mM MgCl2
  MIC: 6.25 µg/mL
S. aureus ATCC 25923; LYM broth, 1.5 mM MgCl2
  MIC: 6.25 µg/mL
S. aureus ATCC 25923; LYM broth, 2.5 mM MgCl2
  MIC: 6.25 µg/mL
S. aureus ATCC 25923; [6]
  MIC: 6.25 µg/mL
S. aureus ATCC 25923; [7]
  MIC: 12.5 µg/mL
S. aureus ATCC 25923; [8]
  MIC: 50 µg/mL
S. aureus ATCC 25923; [9]
  MIC: >50 µg/mL
S. aureus ATCC 25923; LYM broth, pH 4.5
  MIC: 3.13 µg/mL
S. aureus ATCC 25923; LYM broth, pH 5.5
  MIC: 3.13 µg/mL
S. aureus ATCC 25923; LYM broth, pH 6.5
  MIC: 3.13 µg/mL
S. aureus ATCC 25923; [10]
  MIC: 25 µg/mL
